Laboratory results as given in patent publication US12448369B2 (Edgewise Therapeutics, Inc., priority 2023, dated 2025).

How the values were obtained:
[1] = system: Rabbit Psoas myofibrils (skeletal myosin ATPase); test: Myofibril ATPase assay, rabbit psoas (skeletal) myofibrils; type: biochemical; conditions: rabbit psoas myofibrils
Outline: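 Rabbit psoas skeletal myofibrils in PIPES/CaCl2/EGTA pCa buffer, pH 7.0. ATPase rate followed by PK-LDH-coupled NADH loss at 340 nm, read every 1.5–2 min for 75 min. Slopes normalized to vehicle (100%) and fitted to a 4-parameter logistic; values are Y75 (25% inhibition) or Y125 (25% activation) concentrations.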

[2] = molecular target: T1, Porcine ventricle myofibrils (ventricular myosin ATPase) (Sus scrofa, UniProt P79293); test: Myofibril ATPase assay, porcine ventricle myofibrils; type: biochemical, porcine (Yucatan minipigs); conditions: porcine ventricle myofibrils
T1 construct: Myofibrils from porcine cardiac muscle was isolated from the left ventricle of Yucatan minipigs; tissue Exemplar Genetics; host or cells: left ventricle of Yucatan minipigs, myofibrils prepared in house
T1 sequence (P79293 whole entry): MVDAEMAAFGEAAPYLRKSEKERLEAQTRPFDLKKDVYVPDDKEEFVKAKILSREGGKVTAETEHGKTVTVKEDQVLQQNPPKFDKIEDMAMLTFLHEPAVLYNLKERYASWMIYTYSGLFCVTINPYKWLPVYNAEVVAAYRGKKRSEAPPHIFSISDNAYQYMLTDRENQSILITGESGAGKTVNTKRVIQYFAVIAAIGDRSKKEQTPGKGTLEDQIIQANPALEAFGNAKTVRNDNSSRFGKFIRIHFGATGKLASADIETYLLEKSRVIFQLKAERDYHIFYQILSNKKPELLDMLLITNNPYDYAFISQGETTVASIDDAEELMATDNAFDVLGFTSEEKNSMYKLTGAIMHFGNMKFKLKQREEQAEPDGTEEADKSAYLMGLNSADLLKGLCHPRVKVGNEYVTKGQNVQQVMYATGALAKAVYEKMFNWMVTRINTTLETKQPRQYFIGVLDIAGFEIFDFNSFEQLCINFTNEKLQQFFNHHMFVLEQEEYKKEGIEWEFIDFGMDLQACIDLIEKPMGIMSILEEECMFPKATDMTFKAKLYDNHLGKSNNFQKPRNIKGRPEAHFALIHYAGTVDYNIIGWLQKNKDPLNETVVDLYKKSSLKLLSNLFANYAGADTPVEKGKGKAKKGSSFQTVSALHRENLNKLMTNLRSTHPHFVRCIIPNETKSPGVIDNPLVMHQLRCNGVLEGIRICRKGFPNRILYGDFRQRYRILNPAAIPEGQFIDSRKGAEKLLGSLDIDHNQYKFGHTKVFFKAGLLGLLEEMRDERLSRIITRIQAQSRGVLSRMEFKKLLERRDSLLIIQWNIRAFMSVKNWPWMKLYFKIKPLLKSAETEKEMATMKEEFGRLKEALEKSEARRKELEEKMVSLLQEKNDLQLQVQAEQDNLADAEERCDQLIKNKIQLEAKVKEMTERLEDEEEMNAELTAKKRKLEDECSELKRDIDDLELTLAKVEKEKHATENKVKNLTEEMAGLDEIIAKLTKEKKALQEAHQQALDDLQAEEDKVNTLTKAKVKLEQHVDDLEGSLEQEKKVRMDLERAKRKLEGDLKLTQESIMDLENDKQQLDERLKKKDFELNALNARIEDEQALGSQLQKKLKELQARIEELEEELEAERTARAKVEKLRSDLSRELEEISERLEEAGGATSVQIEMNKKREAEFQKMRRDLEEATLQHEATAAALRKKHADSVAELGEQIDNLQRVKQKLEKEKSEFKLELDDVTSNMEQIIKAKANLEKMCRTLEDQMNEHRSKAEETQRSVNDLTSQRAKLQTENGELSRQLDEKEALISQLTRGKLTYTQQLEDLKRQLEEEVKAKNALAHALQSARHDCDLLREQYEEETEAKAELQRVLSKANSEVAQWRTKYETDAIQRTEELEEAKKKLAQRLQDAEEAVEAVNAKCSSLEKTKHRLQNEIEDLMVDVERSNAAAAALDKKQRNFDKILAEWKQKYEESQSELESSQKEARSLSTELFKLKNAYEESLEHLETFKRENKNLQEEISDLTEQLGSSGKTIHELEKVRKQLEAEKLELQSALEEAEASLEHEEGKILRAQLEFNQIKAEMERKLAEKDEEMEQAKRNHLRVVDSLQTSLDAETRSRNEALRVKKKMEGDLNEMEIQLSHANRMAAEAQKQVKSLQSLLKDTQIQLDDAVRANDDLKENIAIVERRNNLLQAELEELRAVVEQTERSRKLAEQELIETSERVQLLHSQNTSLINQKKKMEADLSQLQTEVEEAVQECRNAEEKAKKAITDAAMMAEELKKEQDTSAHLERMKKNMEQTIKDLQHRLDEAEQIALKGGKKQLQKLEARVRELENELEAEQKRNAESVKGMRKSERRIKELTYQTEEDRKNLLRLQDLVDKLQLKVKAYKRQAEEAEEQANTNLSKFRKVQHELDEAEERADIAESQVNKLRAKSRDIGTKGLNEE
Outline: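 Read-out: A340 kinetic, NADH consumption coupled to ADP via PK-LDH, 75 min. Yucatan minipig LV myofibrils, pCa buffer (PIPES/CaCl2/EGTA, pH 7.0). Linear-regression slope (mAU/min), vehicle = 100%, 4PL fit; Y75 or Y125 reported.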

[3] = system: Porcine atria myofibrils (atrial myosin ATPase); test: Myofibril ATPase assay, porcine atria myofibrils; type: biochemical; conditions: porcine atria myofibrils
Outline: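 Coupled PK-LDH reaction links ADP from myosin ATPase to NADH loss, read at 340 nm every 1.5-2 min for 75 min. Slopes (mAU/min) normalized to vehicle-only wells (100%) and fit to a 4-parameter logistic; Y75 is the concentration cutting activity by 25%, Y125 is reported for activators.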

[4] = Y75 value (75% activity relative to no compound)
[5] = ‡ Y125 value, not a Y75 value (125% activity relative to no compound)

Compound | Skeletal EC25 ([1]; Y75 value (no ‡ mark)) [µM] | Ventricular EC25 ([2]; Y75 value (no ‡ mark)) [µM] | Atrial EC25 ([3]; Y75 value (no ‡ mark)) [µM] | Skeletal EC25 ([1]; Y75 value) [µM] | Ventricular EC25 ([2]; Y75 value) [µM] | Atrial EC25 [3, 4] [µM] | Skeletal EC25 [1, 5] | Ventricular EC25 [2, 5]
Cc1c([C@@H](C)C(=O)N[C@H](C)c2ncc(C#N)cc2F)c(=O)[nH]c2ccc(F)c(F)c12 (relative stereo) [compound 2600, Rel-(2R*)-N-[(1R)-1-(5-cyano-3-fluoropyridin-2-yl)ethyl]-2-(5,6-difluoro-4-methyl-2-oxo-1H-quinolin-3-yl) propanamide] | 100.00 | 100.00 | 0.67 | – | – | – | – | –
COc1cccc([C@@H](C)NC(=O)Cc2c(C)c3c(C)nccc3[nH]c2=O)c1 (single isomer, unassigned) [compound 314] | – | – | – | 100.00 | 100.00 | 100.00 | – | –
C[C@H](NC(=O)Cc1cc2c(F)c(F)ccc2[nH]c1=O)c1ncc(C#N)cn1 (single isomer, unassigned) [compound 2072] | 0.35 | 11.13 | 0.68 | – | – | – | – | –
C[C@@H](NC(=O)Cc1cc2cc(F)c(F)cc2[nH]c1=O)c1ncc(C#N)cn1 (single isomer, unassigned) [compound 2035] | 5.70 | 38.21 | 2.19 | – | – | – | – | –
Cc1cnncc1[C@H](C)NC(=O)Cc1c(C)c2c(C)nccc2[nH]c1=O [compound 481] | – | – | – | 100.00 | 100.00 | 100.00 | – | –
COc1ccc2[nH]c(=O)c(CC(=O)N[C@H](C)c3ncc(F)cc3F)cc2c1C (single isomer, unassigned) [compound 79] | 100.00 | 100.00 | 100.00 | – | – | – | – | –
Cc1c(CC(=O)N[C@H](C)c2ncc(C#N)cc2F)c(=O)[nH]c2ccc(OC(F)(F)F)nc12 [compound 455] | – | – | – | 5.74 | 100.00 | 7.11 | – | –
Cc1c(CC(=O)N[C@@H](C)c2ccc(F)cc2F)c(=O)[nH]c2ccc(OCC(F)(F)F)nc12 [compound 400] | – | – | – | 0.36 | 100.00 | 1.55 | – | –
Cc1c([C@@H](C)C(=O)N[C@@H](C)c2ncc(C#N)cc2F)c(=O)[nH]c2ccc(F)c(F)c12 (relative stereo) [compound 2602, rel-(2R*)-N-[(1S)-1-(5-cyano-3-fluoropyridin-2-yl)ethyl]-2-(5,6-difluoro-4-methyl-2-oxo-1H-quinolin-3-yl) propanamide] | 0.02 | 0.08 | 0.05 | – | – | – | – | –
Cc1c(CC(=O)N[C@@H](C)c2cnc(C#N)cn2)c(=O)[nH]c2ccc(F)cc12 [compound 1109] | 0.05 | 0.36 | 0.16 | – | – | – | – | –
Cc1c(CC(=O)N[C@@H](C)c2ccc(F)cc2F)c(=O)[nH]c2ccc(C(F)(F)F)nc12 [compound 393] | – | – | – | 0.02 | 0.42 | 2.46 | – | –
Cc1nccc2[nH]c(=O)c(C(F)(F)C(=O)N[C@@H](C)c3cnc(C#N)cn3)c(C)c12 (single isomer, unassigned) [compound 3521] | – | – | – | 2.68 | 34.58 | 14.61 | – | –
C[C@@H](NC(=O)Cc1c(O)c2cc(F)c(F)cc2[nH]c1=O)c1ccc(C#N)cc1F [compound 1086] | 100.00 | 100.00 | 1.94 | – | – | – | – | –
C[C@@H](NC(=O)C1(c2cc3cc(F)ccc3[nH]c2=O)CC1)c1nccc(C#N)n1 (single isomer, unassigned) [compound 2507] | 19.51 | 100.00 | 4.10 | – | – | – | – | –
COc1ccc2[nH]c(=O)c(CC(=O)N[C@@H](C)c3ncc(F)cc3F)cc2c1C (single isomer, unassigned) [compound 80] | 18.54 | 100.00 | 100.00 | – | – | – | – | –
Cc1nccc2[nH]c(=O)c(CC(=O)N[C@H](C)c3ccc(C#N)cc3F)c(C)c12 (single isomer, unassigned) [compound 255] | – | – | – | 0.71 | 1.77 | 1.30 | – | –
Cc1ccc2[nH]c(=O)c(CC(=O)N[C@@H](C)c3ncc(C#N)cc3F)c(C)c2n1 [compound 469] | – | – | – | 0.55 | 1.66 | 0.15 | – | –
Cc1c(CC(=O)N[C@@H](C)c2ccc(C#N)cn2)c(=O)[nH]c2ccc(F)c(F)c12 [compound 46] | 0.02 | 0.12 | 0.24 | – | – | – | – | –

Compound | Skeletal EC25 ([1]; Y75 value (no ‡ mark)) [µM] | Ventricular EC25 ([2]; Y75 value (no ‡ mark)) [µM] | Atrial EC25 ([3]; Y75 value (no ‡ mark)) [µM] | Skeletal EC25 ([1]; Y75 value) [µM] | Ventricular EC25 ([2]; Y75 value) [µM] | Atrial EC25 [3, 4] [µM] | Skeletal EC25 [1, 5] | Ventricular EC25 [2, 5]
Cc1cc([C@@H](C)NC(=O)Cc2c(C)c3c(C)c(F)ccc3[nH]c2=O)ncc1F (single isomer, unassigned) [compound 2076] | 2.56 | 46.49 | 100.00 | – | – | – | – | –
Cc1c(CC(=O)N[C@@H](C)c2ccc(F)cc2F)c(=O)[nH]c2cccc(F)c12 [compound 130] | 0.03 | 0.15 | 0.02 | – | – | – | – | –
Cc1c(CC(=O)N[C@H](C)c2ccc(C#N)cn2)c(=O)[nH]c2ccc(F)cc12 [compound 1127] | 0.24 | 1.57 | 0.72 | – | – | – | – | –
Cc1c(CC(=O)N[C@H](C)c2ccc(C#N)cn2)c(=O)[nH]c2ccc(C(F)(F)F)nc12 [compound 459] | – | – | – | 100.00 | 100.00 | 3.13 | – | –
Cc1nc(C#N)cnc1[C@@H](C)NC(=O)C1(c2cc3c(F)c(F)ccc3[nH]c2=O)CC1 (single isomer, unassigned) [compound 4825] | 100.00 | 100.00 | 0.43 | – | – | – | – | –
C[C@H](NC(=O)Cc1c(C2CC2)c2cnccc2[nH]c1=O)c1ccc(F)cc1F [compound 444] | – | – | – | 0.17 | 20.82 | 1.14 | – | –
Cc1c(F)ccc2[nH]c(=O)c(CC(=O)N[C@H](C)c3ccc(C#N)cc3F)c(O)c12 [compound 19] | 2.92 | 1.01 | 100.00 | – | – | – | – | –
Cc1c(CC(=O)N[C@@H]2COc3cccnc32)c(=O)[nH]c2ccnc(C#N)c12 (single isomer, unassigned) [compound 212] | – | – | – | 2.21 | 35.35 | 14.71 | – | –
Cc1c(CC(=O)N[C@@H](C)c2ccc(F)cc2F)c(=O)[nH]c2ccc(F)c(C3CC3)c12 [compound 101] | 0.23 | 0.11 | 0.04 | – | – | – | – | –
C[C@H](NC(=O)C1(c2cc3c(F)c(F)ccc3[nH]c2=O)CC1)c1cc(C#N)ccn1 (single isomer, unassigned) [compound 2584] | – | – | 100.00 | – | – | – | 100.00‡ μM | 100.00‡ μM
C[C@@H](NC(=O)C(F)(F)c1cc2c(F)c(F)ccc2[nH]c1=O)c1ncc(C#N)cn1 (single isomer, unassigned) [compound 2545] | 0.13 | 1.22 | 7.98 | – | – | – | – | –
C[C@@H](NC(=O)Cc1c(C2CC2)c2cc(C#N)ccc2[nH]c1=O)c1ncc(C#N)cc1F [compound 1151] | 10.08 | 21.67 | 21.52 | – | – | – | – | –
Cc1c(CC(=O)N[C@H]2COc3cccnc32)c(=O)[nH]c2ccnc(C#N)c12 (single isomer, unassigned) [compound 213] | – | – | – | 7.67 | 100.00 | 100.00 | – | –
Cc1c(CC(=O)N[C@H](C)c2ccc(C#N)cn2)c(=O)[nH]c2ccc(F)c(C#N)c12 [compound 49] | 0.06 | 0.68 | 0.18 | – | – | – | – | –
Cc1ccc2[nH]c(=O)c(CC(=O)N[C@H](C)c3ncc(C#N)cn3)cc2c1F (single isomer, unassigned) [compound 2013] | 13.05 | 100.00 | 16.08 | – | – | – | – | –
C[C@H](NC(=O)[C@H](C)c1cc2cnccc2[nH]c1=O)c1ccc(F)cc1F (single isomer, unassigned) [compound 443] | – | – | – | 1.34 | 100.00 | 100.00 | – | –
Cc1c(C2(C(=O)N[C@H]3CCc4cc(C#N)cnc43)CC2)c(=O)[nH]c2ccc(F)c(F)c12 (single isomer, unassigned) [compound 4804] | 100.00 | 100.00 | 4.71 | – | – | – | – | –
COC[C@H](NC(=O)Cc1c(C)c2c(C#N)nccc2[nH]c1=O)c1ncc(F)cc1F [compound 160] | – | – | – | 0.03 | 2.23 | 0.13 | – | –
